These compounds were tested against T1, full-length human BTK (Homo sapiens, UniProt Q06187) (assay: Assay A: BTK IC50 Enzyme Assay (microfluidic off-chip mobility shift kinase assay)). Details: full-length human BTK, kinKDR peptide substrate, incubated 90 min at 27 C; read-out: Assay A (Time Dependent BTK Enzyme Assay IC50).
T1 construct: 2.5× stocks of full-length human BTK (08-080); purchased CarnaBio USA, Inc., Natick, Mass; 08-080
Assay type: biochemical
In short: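 Off-chip microfluidic mobility shift assay with full-length human BTK; phosphorylated and unphosphorylated peptide substrate were separated by charge/mass on a LabChip 3000.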

T1 sequence (Q06187 whole entry): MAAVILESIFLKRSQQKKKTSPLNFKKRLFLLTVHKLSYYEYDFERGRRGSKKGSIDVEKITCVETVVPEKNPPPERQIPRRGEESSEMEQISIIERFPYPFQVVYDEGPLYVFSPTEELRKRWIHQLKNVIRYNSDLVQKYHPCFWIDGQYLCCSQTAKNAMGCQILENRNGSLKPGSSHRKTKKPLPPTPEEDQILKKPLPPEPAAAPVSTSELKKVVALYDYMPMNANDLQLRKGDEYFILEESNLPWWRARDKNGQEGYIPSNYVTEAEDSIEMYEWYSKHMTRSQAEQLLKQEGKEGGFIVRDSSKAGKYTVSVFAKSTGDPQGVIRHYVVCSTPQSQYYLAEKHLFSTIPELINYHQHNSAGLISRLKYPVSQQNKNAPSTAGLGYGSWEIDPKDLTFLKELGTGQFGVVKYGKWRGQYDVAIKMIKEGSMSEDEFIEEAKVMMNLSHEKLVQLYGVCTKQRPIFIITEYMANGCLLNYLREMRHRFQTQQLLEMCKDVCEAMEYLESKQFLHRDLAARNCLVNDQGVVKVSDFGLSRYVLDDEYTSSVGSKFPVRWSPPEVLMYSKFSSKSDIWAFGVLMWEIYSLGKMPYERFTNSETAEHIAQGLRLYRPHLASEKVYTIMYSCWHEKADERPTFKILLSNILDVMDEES

IC50	Compound
< 0.1 µM	C=CC(=O)N[C@H]1CCN(c2ccc(C(N)=O)c(Nc3ccc(C(=O)N4CCCCC4)cc3)n2)C1 [Compound 21, 6-((S)-3-Acryloylamino-pyrrolidin-1-yl)-2-[4-(piperidine-1-carbonyl)-phenylamino]-nicotinamide]
< 0.1 µM	C=CC(=O)N1CCN(c2ncc(C(N)=O)c(Oc3ccc(Oc4ccccc4)cc3)n2)C(C)C1 (centres unmarked) [Compound 218, 2-(4-acryloyl-2-methylpiperazin-1-yl)-4-(4-phenoxyphenoxy)pyrimidine-5-carboxamide]
1 to 5 µM	N#CN1CCC(c2cnc(Oc3ccc(Oc4ccccc4)cc3)c(C(N)=O)c2)C1 (centres unmarked) [Compound 245, 5-(1-cyanopyrrolidin-3-yl)-2-(4-phenoxyphenoxy)pyridine-3-carboxamide]
< 0.1 µM	C=CC(=O)N1CCCC(c2cnc(Oc3ccc(Oc4ccccc4)cc3)c(C(N)=O)c2)C1 (centres unmarked) [Compound 126, 1′-Acryloyl-6-(4-phenoxy-phenoxy)-1′,2′,3′,4′,5′,6′-hexahydro-[3,3′]bipyridinyl-5-carboxylic acid amide]
1 to 5 µM	CN(C)C/C=C/C(=O)N[C@H]1CCN(c2ncc(C(N)=O)c(N)n2)C1 [Compound 145, 4-Amino-2-[(S)-3-((E)-4-dimethylamino-but-2-enoylamino)-pyrrolidin-1-yl]-pyrimidine-5-carboxylic acid amide]
> 5 µM	C/C=C/C(=O)N1CC2CN(c3cnc(Oc4ccc(Oc5ccccc5)cc4)c(C(N)=O)c3)CC2C1 (centres unmarked) [Compound 217, 5-[5-((E)-But-2-enoyl)-hexahydro-pyrrolo[3,4-c]pyrrol-2-yl]-2-(4-phenoxy-phenoxy)-nicotinamide]
> 5 µM	C=CC(=O)NCc1ccc(-c2ccc(C(N)=O)c(Oc3ccc(Oc4ccccc4)cc3)n2)s1 [Compound 160, 6-(5-(acrylamidomethyl)thiophen-2-yl)-2-(4-phenoxyphenoxy)nicotinamide]
1 to 5 µM	N#CN1CCC[C@H](c2cnc(Oc3ccc(Oc4ccc(F)cc4F)cc3)c(C(N)=O)c2)C1 [Compound 248, 5-[(3R)-1-cyanopiperidin-3-yl]-2-[4-(2,4-difluorophenoxy)phenoxy]pyridine-3-carboxamide]
0.1 to 1 µM	C=CC(=O)N[C@H]1CCN(c2ccc(C(N)=O)c(Oc3ccc(NC(=O)c4ccccc4)cc3)n2)C1 [Compound 95, (S)-6-(3-acrylamidopyrrolidin-1-yl)-2-(4-benzamidophenoxy)nicotinamide]
1 to 5 µM	C=CC(=O)N1CCC(c2cc(Oc3ccc(C(=O)Nc4ccccc4)cc3)c(C(N)=O)cn2)C1 (centres unmarked) [Compound 117]
< 0.1 µM	C=CC(=O)N[C@H]1CCN(c2ccc(C(N)=O)c(Nc3cncc(C)c3)n2)C1 [Compound 55, 6-((S)-3-Acryloylamino-pyrrolidin-1-yl)-2-(5-methyl-pyridin-3-ylamino)-nicotinamide]
0.1 to 1 µM	C=CC(=O)N1CCCC(c2ccc(C(N)=O)c(Oc3ccc(Oc4ccccc4)cc3)n2)C1 (centres unmarked) [Compound 87, 1′-Acryloyl-6-(4-phenoxy-phenoxy)-1′,2′,3′,4′,5′,6′-hexahydro-[2,3′]bipyridinyl-5-carboxylic acid amide]
> 5 µM	C/C=C/C(=O)NC1CCCN(c2cnc(Oc3ccc(Oc4cccc(F)c4)cc3)c(C(N)=O)c2)C1 (centres unmarked) [Compound 222, 3-((E)-But-2-enoylamino)-6′-[4-(3-fluoro-phenoxy)-phenoxy]-3,4,5,6-tetrahydro-2H-[1,3′]bipyridinyl-5′-carboxylic acid amide]
1 to 5 µM	C=CC(=O)NC1CC2(C1)CC(Nc1ncc(C(N)=O)c(Oc3ccc(Oc4ccccc4)cc3)n1)C2 (centres unmarked) [Compound 195, 2-((6-acrylamidospiro[3.3]heptan-2-yl)amino)-4-(4-phenoxyphenoxy)pyrimidine-5-carboxamide]

The next lines start with the compound.

Compound	IC50
C=CC(=O)N[C@H]1CCN(c2ccc(C(N)=O)c(NC3CCOCC3)n2)C1 [Compound 165, 6-((S)-3-Acryloylamino-pyrrolidin-1-yl)-2-(tetrahydro-pyran-4-ylamino)-nicotinamide]	> 5 µM
C=CC(=O)NC1CCCN(c2ncc(C(N)=O)c(Oc3ccc(Oc4ccccc4)cc3)n2)C1 (centres unmarked) [Compound 204, 2-(3-acrylamidopiperidin-1-yl)-4-(4-phenoxyphenoxy)pyrimidine-5-carboxamide]	1 to 5 µM
C=CC(=O)NCc1cncc(-c2ccc(C(N)=O)c(Oc3ccc(Oc4ccccc4)cc3)n2)c1 [Compound 84, 5′-(acrylamidomethyl)-6-(4-phenoxyphenoxy)-[2,3′-bipyridine]-5-carboxamide]	< 0.1 µM
C=CC(=O)N[C@H]1CCN(c2nc(Oc3ccc(Oc4ccccc4)cc3)c(C(N)=O)cc2F)C1 [Compound 2, 6-((S)-3-Acryloylamino-pyrrolidin-1-yl)-5-fluoro-2-(4-phenoxy-phenoxy)-nicotinamide]	0.1 to 1 µM
C=CC(=O)N1C[C@@H]2CCN(c3ncc(C(N)=O)c(Oc4ccc(Oc5ccccc5)cc4)n3)[C@@H]2C1 [Compound 203, 2-((3aS,6aS)-5-acryloylhexahydropyrrolo[3,4-b]pyrrol-1(2H)-yl)-4-(4-phenoxyphenoxy)pyrimidine-5-carboxamide]	0.1 to 1 µM
C=CC(=O)N[C@H]1CCN(c2ccc(C(N)=O)c(Oc3ccc(Oc4ccc(C)cc4)cc3)n2)C1 [Compound 85, (S)-6-(3-acrylamidopyrrolidin-1-yl)-2-(4-(p-tolyloxy)phenoxy)nicotinamide]	0.1 to 1 µM
C=CC(=O)N[C@H]1CCN(c2ncnc(C(N)=O)c2Cl)C1 [Compound 172, 6-((S)-3-Acryloylamino-pyrrolidin-1-yl)-5-chloro-pyrimidine-4-carboxylic acid amide]	> 5 µM
C=CC(=O)N1CCC(Nc2cnc(Oc3ccc(Oc4cccc(F)c4)cc3)c(C(N)=O)c2)C1 (centres unmarked) [Compound 253, 5-(1-Acryloyl-pyrrolidin-3-ylamino)-2-[4-(3-fluoro-phenoxy)-phenoxy]-nicotinamide]	< 0.1 µM
C=CC(=O)N1CCC(c2cnc(Oc3ccc(Oc4ccccc4)cc3)c(C(N)=O)c2)CC1 [Compound 127, 1′-Acryloyl-6-(4-phenoxy-phenoxy)-1′,2′,3′,4′,5′,6′-hexahydro-[3,4′]bipyridinyl-5-carboxylic acid amide]	0.1 to 1 µM
NC(=O)c1ccc(C2CCN(C(=O)/C=C/CN3CCN(CCNC(=O)CCCC[C@@H]4SC[C@@H]5NC(=O)N[C@@H]54)CC3)CC2)nc1Oc1ccc(Oc2ccccc2)cc1 [Compound 86, 6-(1-((E)-4-(4-(2-(5-((3aS,4S,6aR)-2-oxohexahydro-1H-thieno[3,4-d]imidazol-4-yl)pentanamido)ethyl)piperazin-1-yl)but-2-enoyl)piperidin-4-yl)-2-(4-phenoxyphenoxy)nicotinamide]	0.1 to 1 µM
C=CC(=O)N1CCn2ncc(-c3cnc(C(N)=O)c(NC(C)=O)c3)c2C1 [Compound 132]	< 0.1 µM
C=CC(=O)N1CCN(c2nc(N(C)c3cccc(C)c3)ccc2C(N)=O)CC1 [Compound 158, 2-(4-Acryloyl-piperazin-1-yl)-6-(methyl-m-tolyl-amino)-nicotinamide]	0.1 to 1 µM
C=CC(=O)NCc1ccc(-c2ccc(C(N)=O)c(Oc3ccc(Oc4ccccc4)cc3)n2)cc1 [Compound 89, 6-(4-(acrylamidomethyl)phenyl)-2-(4-phenoxyphenoxy)nicotinamide]	0.1 to 1 µM
C=CC(=O)N[C@H]1CCN(c2ncc(C(N)=O)cc2-c2ccc(Oc3ccccc3)cc2)C1 [Compound 170, 6-((S)-3-Acryloylamino-pyrrolidin-1-yl)-5-(4-phenoxy-phenyl)-nicotinamide]	> 5 µM
C=CC(=O)N[C@H]1CCN(c2ccc(C(N)=O)c(Nc3cccc(C)c3)n2)C1 [Compound 57, 6-((S)-3-Acryloylamino-pyrrolidin-1-yl)-2-m-tolylamino-nicotinamide]	< 0.1 µM
C=CC(=O)N1CCC(c2cc(Oc3ccc(NC(=O)c4ccccc4)cc3)c(C(N)=O)cn2)C1 (centres unmarked) [Compound 184, 6-(1-Acryloylpyrrolidin-3-yl)-4-(4-benzamidophenoxy)nicotinamide]	1 to 5 µM
C=CC(=O)N[C@H]1CCN(c2cc(Oc3ccc(OCc4ccccc4)cc3)c(C(N)=O)cn2)C1 [Compound 112, (S)-6-(3-acrylamidopyrrolidin-1-yl)-4-(4-(benzyloxy)phenoxy)nicotinamide]	0.1 to 1 µM
C=CC(=O)N[C@H]1CCN(c2ncc(C(N)=O)c(N)n2)C1 [Compound 142, 2-((S)-3-Acryloylamino-pyrrolidin-1-yl)-4-amino-pyrimidine-5-carboxylic acid amide]	0.1 to 1 µM
C/C=C/C(=O)NC1CCN(c2cnc(Oc3ccc(Oc4ccccc4)cc3)c(C(N)=O)c2)C1 (centres unmarked) [Compound 199, 5-[3-((E)-But-2-enoylamino)-pyrrolidin-1-yl]-2-(4-phenoxy-phenoxy)-nicotinamide]	> 5 µM
C=CC(=O)N[C@H]1C[C@H](Nc2ncc(C(N)=O)c(Oc3ccc(Oc4ccccc4)cc3)n2)C1 [Compound 176, 2-(((1r,3r)-3-acrylamidocyclobutyl)amino)-4-(4-phenoxyphenoxy)pyrimidine-5-carboxamide]	0.1 to 1 µM
C=CC(=O)N1CCC(Nc2cnc(Oc3ccc(Oc4ccccc4)cc3)c(C(N)=O)c2)CC1 [Compound 252, 5-(1-Acryloyl-piperidin-4-ylamino)-2-(4-phenoxy-phenoxy)-nicotinamide]	< 0.1 µM
C=CC(=O)N1CC2CN(c3cnc(Oc4ccc(Oc5ccccc5)cc4)c(C(N)=O)c3)CC2C1 (centres unmarked) [Compound 216, 5-(5-Acryloyl-hexahydro-pyrrolo[3,4-c]pyrrol-2-yl)-2-(4-phenoxy-phenoxy)-nicotinamide]	0.1 to 1 µM
C/C=C/C(=O)N1CCC(Nc2cnc(Oc3ccc(Oc4cccc(F)c4)cc3)c(C(N)=O)c2)CC1 [Compound 230, 5-[1-((E)-But-2-enoyl)-piperidin-4-ylamino]-2-[4-(3-fluoro-phenoxy)-phenoxy]-nicotinamide]	1 to 5 µM
C=CC(=O)N[C@H]1CCN(c2ccc(C(N)=O)c(Nc3ccc(Oc4ccnc(C(=O)NC)c4)cc3)n2)C1 [Compound 36, 6-((S)-3-Acryloylamino-pyrrolidin-1-yl)-2-[4-(2-methylcarbamoyl-pyridin-4-yloxy)-phenylamino]-nicotinamide]	< 0.1 µM

Source: patent US10329270B2, “Heteroaryl compounds as BTK inhibitors and uses thereof” (Merck Patent GmbH, priority 2013, dated 2019)
